Laboratory results reported in patent EP4471048A1, “PEPTIDE INHIBITORS OF INTERLEUKIN-23 RECEPTOR” (Zealand Pharma A/S, priority 2023, dated 2024).
Like-named read-outs stand apart in the source and are kept apart here. *1 amine or outer side, *2 acyl side, *3 side chain or, on linkers, in order; H or OH if unused. Where a SMILES comes first, the peptide text is derived from it. Bridges are numbered along the chain shown (N, C = ends). [ ]: non-standard residue; d: D form. 2Nal = N[C@@H](Cc1ccc2ccccc2c1)C(=O)O; AEF = NCCOc1ccc(C[C@H](N)C(=O)O)cc1; X1 = O=C(Cc1ccc(CN[*:1])cc1)[*:2]; 3Pal = N[C@@H](Cc1cccnc1)C(=O)O; αMeL = CC(C)C[C@](C)(N)C(=O)O; CH2COCH2 = O=C(C[*:1])C[*:2]; 3Amb = NCc1cccc(C(=O)O)c1; Dab = NCC[C@H](N)C(=O)O

Columns and labels:
[1] = target: T1, human IL-23R (Homo sapiens, UniProt Q5VWK5); experiment: biochemical
T1 sequence (Q5VWK5 22-629): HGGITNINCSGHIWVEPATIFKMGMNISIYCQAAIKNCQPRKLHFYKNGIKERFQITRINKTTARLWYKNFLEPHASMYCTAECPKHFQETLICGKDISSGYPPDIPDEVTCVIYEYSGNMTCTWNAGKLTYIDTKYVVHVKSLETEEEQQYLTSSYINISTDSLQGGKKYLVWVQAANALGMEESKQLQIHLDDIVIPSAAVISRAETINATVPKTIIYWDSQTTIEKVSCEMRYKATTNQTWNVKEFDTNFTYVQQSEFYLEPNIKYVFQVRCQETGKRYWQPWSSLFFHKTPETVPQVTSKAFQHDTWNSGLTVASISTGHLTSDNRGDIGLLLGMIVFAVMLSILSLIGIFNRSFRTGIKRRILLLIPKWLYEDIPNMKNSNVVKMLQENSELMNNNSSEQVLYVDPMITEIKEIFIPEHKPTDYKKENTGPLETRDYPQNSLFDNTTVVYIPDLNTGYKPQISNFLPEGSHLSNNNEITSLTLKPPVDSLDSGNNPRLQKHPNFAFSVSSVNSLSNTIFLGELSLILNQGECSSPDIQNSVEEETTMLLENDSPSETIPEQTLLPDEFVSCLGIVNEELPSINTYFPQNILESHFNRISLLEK
How it was run: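 BRET displacement of a TAMRA-labelled reference compound from N-terminal Nanoluc-IL-23R fusion protein in membranes from stably transfected HEK293 cells. Incubation 2 h at room temperature, then Nanoluc substrate was added and the TAMRA/Nanoluc ratio read. IC50 and maximal displacement came from 4-parameter logistic fits.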

[2] = target: IL-23 mediated signalling (Homo sapiens, UniProt Q5VWK5); experiment: Functional inhibition of IL-23 mediated STAT3 signalling (phospho-STAT3 MSD) in DB cells; format: cell-based; settings: for Emax: maximal inhibitory response, read-out: hIL-23 (pSTAT3) antagonist % inhibition
How it was run: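 DB cells preincubated with inhibitor 15 min at 37 °C, then stimulated 90 min with EC80 human IL-23; lysate phospho-STAT3 measured by MSD electrochemiluminescence. Signal normalized to IL-23-alone and buffer controls; IC50 and maximal % inhibition from 4-parameter logistic fit.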

[3] = Peptide stability in simulated intestinal fluid (SIF); format: in vitro ADME; settings: 37 °C, porcine pancreatin; for remaining at 1 h, 10 µM / remaining at 4 h, 10 µM: pig; for remaining at 1 h, 10 µM: pH 6.8, 1 h
How it was run: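 Peptides were incubated at 37 °C with gentle shaking in pH 6.8 potassium phosphate SIF containing porcine pancreatin (10 g/L). Supernatants were analysed by LC-HRMS. Percent remaining at each timepoint, including 4 h, was calculated relative to time zero from absolute peak areas.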

[4] = Peptide stability in simulated gastric fluid (SGF); format: in vitro ADME; settings: for remaining at 1 h, 10 µM / remaining at 4 h, 10 µM: pig
How it was run: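 Peptide incubated at 37 °C with gentle shaking in SGF (NaCl, pH 1.2). Samples centrifuged, diluted and analysed by LC-HRMS; percent remaining at each timepoint from absolute peak areas relative to time zero, with 4 h as the reference point.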

[5] = SAR tables 2-1 to 2-7, DB cells, hIL-23 at EC80, read-out: IC50 (pSTAT3)
[6] = Table 3-2, DB cells, hIL-23 at EC80
[7] = SAR tables, % peptide remaining, pH 6.8, 4 h, read-out: SIF (% after 4 h)
[8] = simulated gastric fluid (SGF) with porcine pepsin (3.2 g/L), pH 1.2, 10 µM, 37 °C, porcine pepsin, pH 1.2, 1 h, read-out: SGF (% remaining 1 h)
[9] = simulated gastric fluid (SGF) with porcine pepsin (3.2 g/L), pH 1.2, 10 µM, 37 °C, porcine pepsin, pH 1.2, 4 h, read-out: SGF (% remaining 4 h)
[10] = Table 3-2, DB cells, hIL-23 at EC80, read-out: hIL-23 (pSTAT3) antagonist IC50
[11] = pH 6.8, 4 h, read-out: SIF (% remaining 4 h)

SMILES	% displacement (hIL-23R NIuc) [1] [%]	IC50 [1] [nM]	IC50 [2, 5] [nM]	Emax [2, 6] [%]	SIF (% remaining 4 h) ([3]; 10 µM, pH 6.8, 4 h) [%]	remaining at 1 h, 10 µM [3] [%]	remaining at 4 h, 10 µM [3, 7] [%]	remaining at 1 h, 10 µM [4, 8] [%]	remaining at 4 h, 10 µM [4, 9] [%]	SIF (% after 4 h) ([3]; SAR tables, % peptide remaining, 10 µM, pH 6.8, 4 h) [%]	SGF (% after 4 h) ([4]; SAR tables, % peptide remaining, 10 µM, 37 °C, porcine pepsin, pH 1.2, 4 h) [%]	remaining at 4 h, 10 µM ([4]; simulated gastric fluid (SGF) with porcine pepsin (3.2 g/L), pH 1.2, SAR tables, % peptide remaining, 10 µM, 37 °C, porcine pepsin, pH 1.2, 4 h, read-out: SGF (% after 4 h)) [%]	Emax ([1]; read-out: % displacement (hIL-23R NIuc)) [%]	Ki [1] [nM]	IC50 [2, 10] [nM]	remaining at 4 h, 10 µM [3, 11] [%]	IC50 [2] [nM]	remaining at 1 h, 10 µM ([4]; simulated gastric fluid, pH 1.2, SGF (% remaining 1 h)) [%]	remaining at 4 h, 10 µM ([4]; simulated gastric fluid, pH 1.2, SGF (% remaining 4 h)) [%]
CNC(=O)[C@H](Cc1cccnc1)NC(=O)[C@H](CCN)NC(=O)[C@@H]1CCC(=O)NCCCC[C@@H]2NC(=O)CC[C@H](NC(=O)[C@H](CCC(N)=O)NC(=O)[C@H](Cc3c[nH]c4ccccc34)NC(=O)CCNC2=O)C(=O)N[C@@H](Cc2ccc(OCCN)cc2)C(=O)N[C@@H](Cc2ccc3ccccc3c2)C(=O)N[C@@](C)(CC(C)C)C(=O)N1 [Compound 45, K(1c)(6c)^†[3-Aminopropanoyl]WQE(6c)[Y(2-aminoethoxy)][2-Nal][2-Me-Leu]E(1c)[Dab][3-(3-Pyridyl)-Ala]-[NHMe]]	100	0.022	0.058	100	87	90	87	98	103										
CC[C@H](C)[C@@H]1NC(=O)[C@@H]2CCCCNC(=O)CC[C@@H](C(=O)N[C@@H](CCN)C(=O)N[C@@H](Cc3cccnc3)C(=O)NC)NC(=O)[C@](C)(CC(C)C)NC(=O)[C@H](Cc3ccc4ccccc4c3)NC(=O)[C@H](Cc3ccc(OCCN)cc3)NC(=O)[C@H](CCC(=O)N2)NC(=O)[C@H](CCC(N)=O)NC(=O)[C@H](Cc2c[nH]c3ccccc23)NC(=O)[C@H](C(C)C)NC1=O [Compound 60, K(1c)(6c)^†IVWQE(6c)[Y(2-aminoethoxy)][2-Nal][2-Me-Leu]E(1c)[Dab][3-(3-Pyridyl)-Ala]-[NHMe]]	95	0.049		101	71	76	71	120		71	109	109							
CNC(=O)[C@H](Cc1cccnc1)NC(=O)[C@H](CCN)NC(=O)[C@@H]1CCC(=O)NCCCC[C@H]2CC(=O)NCC(=O)N[C@@H](Cc3c[nH]c4ccccc34)C(=O)N[C@@H](CCC(N)=O)C(=O)N[C@@H](CCC(=O)N2)C(=O)N[C@@H](Cc2ccc(OCCN)cc2)C(=O)N[C@@H](Cc2ccc3ccccc3c2)C(=O)N[C@@](C)(CC(C)C)C(=O)N1 [Compound 99, [beta-hLys](1c)(6c)^†GWQE(6c)[Y(2-aminoethoxy)][2-Nal][2-Me-Leu]E(1c)[Dab][3-(3-Pyridyl)-Ala]-[NHMe]]		0.024	0.014	100	42	74	42	104	101				101						
CC(C)C[C@@H]1NC(=O)[C@H](Cc2c[nH]c3ccccc23)NC(=O)[C@H](Cc2c[nH]c3ccccc23)NC(=O)[C@@H]2CSCC(=O)CSC[C@H](NC(=O)[C@H](CO)NC(=O)[C@@H](NC(=O)[C@@H](N)CC(=O)O)CCC(=O)NCCCC[C@@H](C(=O)N[C@@H](CCCNC(=N)N)C(N)=O)NC1=O)C(=O)N[C@@H](Cc1c[nH]c3ccccc13)C(=O)N[C@@H](CCC(N)=O)C(=O)N2 [Ref 4, H-DE(1c)SC(2a)WQC(2a)WWLK(1c)R-[NH2], reference compound] (HELM PEPTIDE1{D.E.S.C.W.Q.C.W.W.L.K.R.[am]}|CHEM1{[O=C(C[*:1])C[*:2]]}$PEPTIDE1,PEPTIDE1,2:R3-11:R3|PEPTIDE1,CHEM1,4:R3-1:R1|PEPTIDE1,CHEM1,7:R3-1:R2$$$V2.0)	100	180		87		0		1	0					143	850	0			
CC(=O)N[C@@H](CC(=O)O)C(=O)N[C@H]1CCC(=O)NCCCC[C@@H](C(=O)N[C@@H](CCCNC(=N)N)C(N)=O)NC(=O)[C@H](CC(C)C)NC(=O)[C@H](Cc2ccc3ccccc3c2)NC(=O)[C@H](Cc2c[nH]c3ccccc23)NC(=O)[C@@H]2CSCC(=O)CSC[C@H](NC(=O)[C@H](CO)NC1=O)C(=O)N[C@@H](Cc1c[nH]c3ccccc13)C(=O)N[C@@H](CCC(N)=O)C(=O)N2 [Ref 17, [Ac]-DE(1c)SC(2a)WQC(2a)W[2-Nal]LK(1c)R-[NH2], reference compound]		87				0		0	0					70.7	370	0			
CC(C)C[C@@H]1NC(=O)[C@H](Cc2ccc3ccccc3c2)NC(=O)[C@H](Cc2c[nH]c3ccccc23)NC(=O)[C@@H]2CSCC(=O)CSC[C@H](NC(=O)[C@H](CO)NC(=O)c3cccc(c3)CNC(=O)CC[C@@H](C(=O)N[C@@H](CCCNC(=N)N)C(N)=O)NC1=O)C(=O)N[C@@H](Cc1c[nH]c3ccccc13)C(=O)N[C@@H](CCC(N)=O)C(=O)N2 [Ref 37, [(3-Aminomethyl)benzoyl](1c)*SC(2a)WQC(2a)W[2-Nal]LE(1c)R-[NH2], reference compound] ([3Amb]SCWQCW[2Nal]LER-NH2; linker 3-6 via CH2COCH2; lactam N-10)	103	12		89		0		2	1					9.87	45	0			
CC(C)C[C@]1(C)NC(=O)[C@H](Cc2ccc3ccccc3c2)NC(=O)[C@H](Cc2ccc(OCCN)cc2)NC(=O)[C@@H]2CSCC(=O)CSC[C@H](NC(=O)[C@H](CO)NC(=O)c3cccc(c3)CNC(=O)CC[C@@H](C(=O)N[C@H](CCCNC(=N)N)C(N)=O)NC1=O)C(=O)N[C@@H](Cc1c[nH]c3ccccc13)C(=O)N[C@@H](CCC(N)=O)C(=O)N2 [Ref 41, [(3-Aminomethyl)benzoyl](1c)*SC(2a)WQC(2a)[Y(2-aminoethoxy)][2-Nal][2-Me-Leu]E(1c)[{d}R]-[NH2], reference compound] ([3Amb]SCWQC[AEF][2Nal][αMeL]E[dR]-NH2; linker 3-6 via CH2COCH2; lactam N-10)	110	2.8		99		83		93	87					2.31	29	79			
CC(C)C[C@]1(C)NC(=O)[C@H](Cc2ccc3ccccc3c2)NC(=O)[C@H](Cc2ccc(OCCN)cc2)NC(=O)[C@@H]2CSCC(=O)CSC[C@H](NC(=O)[C@H](CO)NC(=O)Cc3ccc(cc3)CNC(=O)CC[C@@H](C(=O)N[C@@H](CCN)C(=O)N[C@@H](Cc3cccnc3)C(N)=O)NC1=O)C(=O)N[C@@H](Cc1c[nH]c3ccccc13)C(=O)N[C@@H](CCC(N)=O)C(=O)N2 [Ref 120, [4-Aminomethyl-phenylacetyl](1c)*SC(2a)WQC(2a)[Y(2-aminoethoxy)][2-Nal][2-Me-Leu]E(1c)[Dab][3-(3-Pyridyl)-Ala]-[NH2], reference compound] ([X1]SCWQC[AEF][2Nal][αMeL]E[Dab][3Pal]-NH2; linker 3-6 via CH2COCH2; lactam N-10)	94	0.011		101		82								0.00938		39	0.054	84	81
